Results on one molecule are retold here after patent US7276531B2, “G-lactam derivatives as prostaglandin agonists” (Applied Research Systems ARS Holding N.V., priority 2003, dated 2007).

In experiment [1] the target is h-EP2 (Homo sapiens, UniProt P43116). The experiment can be described thus: Prostaglandin EP2 receptor binding assay (3H-PGE2 SPA). Particulars: EP2 receptor membranes, 20 nM 3H-PGE2, pH 6.0. The method, then: Compounds of the invention were tested in an EP2 receptor binding assay of the following protocol. As referred to herein, the term an “EP2 receptor binding assay” designates the following protocol.

Experiment [2] deals with h-EP4 (Homo sapiens, UniProt P35408). The experiment can be described thus: EP4 receptor binding assay (3H-PGE2 SPA). Particulars: EP4 receptor membranes, 20 nM 3H-PGE2, pH 6.0. On the procedure: Compounds of the invention were tested in an EP4 receptor binding assay of the following protocol.
In experiment [3] the target is T1, hEP2 receptors (Homo sapiens, UniProt P43116).
T1 construct: expressed in transfected cells; host or cells: HEK293-EBNA
The experiment can be described thus: EP2 cAMP assay, HEK293-EBNA cells transfected with pCEP4-hEP2 receptors. Type of experiment: cell-based. Particulars: total cAMP, 1 hour. On the procedure: Compounds of the invention were tested in a total cAMP assay as follows. […] After overnight incubation, the medium was removed from each well and replaced with 45 μl of assay medium consisted of phenol red free D-MEM/F-12, 0.1% BSA (GibcoBRL) and 0.1 mM 3-isobutyl-1-methyl-xanthine (Sigma). […] Total cAMP (intra- and extra-cellular) was measured by using a cAMP-screen ELISA System (Tropix, #CS1000).
(In general: cAMP levels reflect the balance of adenylyl cyclase and phosphodiesterase activity.)

Experiment [4] concerns the target T2, hEP4 receptors (Homo sapiens, UniProt P35408).
T2 construct: expressed in transfected cells; host or cells: HEK293-EBNA
The experiment can be described thus: EP4 cAMP assay, HEK293-EBNA cells transfected with pCEP4-hEP4 receptors. Type of experiment: cell-based. Particulars: total cAMP, 1 hour. The method, then:
Compounds of the invention were tested in a total cAMP assay as follows. HEK293-EBNA cells transfected with pCEP4-hEP4 receptors were seeded in 96 well opaque plate (Costar #3917) at 4×10^4 cells per well in 100 μl of culture medium (D-MEM/F12 supplemented with 10% FBS, […] L-glutamine, and 250 μg/ml of hygromycin; all from GibcoBRL) and incubated at 37° C. After overnight incubation, the medium was removed from each well and replaced with 45 μl of assay medium consisted of phenol red free D-MEM/F-12, 0.1% BSA (GibcoBRL) and 0.1 mM 3-isobutyl-1-methyl-xanthine (Sigma). After 15 minutes of incubation at 37° C., 16-16-dimethyl PGE-2 or compounds at desired concentrations in 20 μl of assay medium were added to cells and further incubated at 37° C. for 1 hour. Total cAMP (intra- and extra-cellular) was measured by using a cAMP-screen ELISA System (Tropix, #CS1000).

For experiment [5], the system named is methacholine-induced bronchoconstriction. Kind of experiment: In vivo inhibition of guinea pig broncho-constriction (methacholine-induced). Particulars: Cavia porcellus, IT (intra-tracheal) route, read-out: calculated effective dose (ED50), bronchoconstriction. From the text:
The activity of compounds of the invention in dilation of bronchiolar muscles, may be tested in different models. Guinea pig pulmonary-cholinergic in vivo model is generally used to test the materials for the treatments of asthma in human (Fleisch et al., 1985) Compounds of the invention can be tested in this methacholine-induced bronchomuscle constriction model as described below.
Groups of 3 Duncan Hartley derived male or female guinea pigs weighing 250±50 g are anesthetized with pentobarbital sodium (50 mg/kg i.p., plus an additional 15 mg/kg i.p. if required) and succinylcholine chloride (2 mg/animal i.p.) is subsequently administered to prevent spontaneous respiration. Body temperature is maintained at 37° to 38° C.
The trachea is cannulated and the guinea pig is ventilated with a Harvard rodent respirator in a closed system. Tracheal pressure is recorded through a side-arm of the cannula connected to a P23ID Statham transducer. […] Mean arterial pressure (BP) is monitored from a cannulated carotid artery, and heart rate (HR) is obtained from chest electrodes arranged for lead II. […]
Compounds of the invention are also tested via intra-tracheal (IT) route of administration. […] Tracheal pressure (ITP), blood pressure and heart rate are measured immediately as indicated in the material and methods sections. […]

Experiment [6] concerns LPS-induced TNFα release. The experiment can be described thus: In vivo inhibition of LPS-induced TNFα release in mice. Particulars: LPS 0.3 mg/kg i.p. The method, then: The anti-inflammatory activity of compounds of the invention may be assessed after a LPS challenge using the following protocol:
Eight weeks old C3H/H mice (IFFA-CREDO, L'arbresle, France) receive an oral treatment with compounds of the invention 6 different doses (0.001, 0.01, 0.1, 1 or 3 and 10 mg/kg in 0.5% CMC/0.25% tween-20). Six mice are used by group. Fifteen minutes later, endotoxins (O111:B4 Sigma, 0.3 mg/kg) are intraperitoneally injected. Heparinized whole blood is collected by decapitation. TNFα level is determined in plasma by ELISA (R & D Systems, Abdingdon, UK). Control animals receive 0.5% CMC/0.25% tween-20 (10 ml/kg) as vehicle. Data obtained from experiments are expressed as the mean±SEM and analysed using one-way analysis of variance (ANOVA) followed by Dunnett's t-test.

T1 sequence (P43116 whole entry): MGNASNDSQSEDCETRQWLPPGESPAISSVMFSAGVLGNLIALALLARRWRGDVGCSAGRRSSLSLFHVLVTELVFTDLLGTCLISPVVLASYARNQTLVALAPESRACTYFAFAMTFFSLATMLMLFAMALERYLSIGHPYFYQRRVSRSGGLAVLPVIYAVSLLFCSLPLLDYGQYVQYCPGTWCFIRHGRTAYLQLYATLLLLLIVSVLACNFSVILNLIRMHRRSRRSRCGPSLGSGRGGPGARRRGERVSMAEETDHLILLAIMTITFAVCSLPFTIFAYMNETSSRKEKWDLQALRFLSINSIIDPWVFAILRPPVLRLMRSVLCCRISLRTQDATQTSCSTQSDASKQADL
Chain of h-EP2 (P43116 whole entry): as above
T2 sequence (P35408 whole entry): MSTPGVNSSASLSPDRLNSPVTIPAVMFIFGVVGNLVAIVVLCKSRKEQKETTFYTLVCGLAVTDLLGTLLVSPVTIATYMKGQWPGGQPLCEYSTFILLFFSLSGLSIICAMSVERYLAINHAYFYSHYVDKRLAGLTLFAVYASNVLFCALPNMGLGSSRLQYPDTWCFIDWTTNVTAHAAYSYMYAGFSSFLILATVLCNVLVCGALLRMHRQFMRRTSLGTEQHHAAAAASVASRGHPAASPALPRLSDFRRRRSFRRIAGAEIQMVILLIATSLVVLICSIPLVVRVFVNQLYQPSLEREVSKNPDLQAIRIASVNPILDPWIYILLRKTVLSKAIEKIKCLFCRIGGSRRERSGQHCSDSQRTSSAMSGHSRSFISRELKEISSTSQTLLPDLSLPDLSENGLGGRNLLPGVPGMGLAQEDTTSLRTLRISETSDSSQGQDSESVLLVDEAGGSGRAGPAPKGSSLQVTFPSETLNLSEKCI
Chain of h-EP4 (P35408 whole entry): as above

One may read the Ki as the equilibrium dissociation constant of an inhibitor or competing ligand from its target. High values mean a looser hold on the target, low ones a stronger hold on the target. Usually EC50 stands for the midpoint of the concentration-response curve. As a reminder, the ED50 is the midpoint of the dose-response relation. Consider `CCCC/C=C(C)/C=C/[C@H]1CCC(=O)N1CCc1ccc(C(=O)O)cc1` [Example 22, 4-(2-{(2R)-2-[(1E,3E)-3-methylocta-1,3-dienyl]-5-oxopyrrolidin-1-yl}ethyl)benzoic acid], for which the Ki in experiment [1] was determined as 34 nM; in experiment [2], 145 nM. The figures for the EC50 in experiment [3] and in experiment [4] were 23 nM and 21 nM, respectively. The ED50 in experiment [5] was 0.4 mg/kg. The “% of Inhibition of TNF Release Mean ± SEM” value in experiment [6] (oral dose 0.001 mg/kg) worked out at 46 ± 2%; in experiment [6] (oral dose 0.01 mg/kg) it was 49 ± 4%; in experiment [6] (oral dose 0.1 mg/kg), 59 ± 2%; in experiment [6] (oral dose 1 mg/kg) it was 70 ± 4%; in experiment [6] (oral dose 10 mg/kg) it was 87 ± 2%.
